In patent US11116760B2 (Gilead Sciences, Inc., priority 2018, dated 2021) one finds EC50 data, which are given here for 36 compounds.

pEC50: −log10 of the molar value.

In one assay the target is α4β7 integrin (Homo sapiens (Human), UniProt P13612+P26010). In words: α4β7 Integrin Cell Capture Assay. In kind it is cell-based. The note with it: RPMI8866 cells captured on MadCAM-1 extracellular domain-coated plate.
Chain of α4β7 integrin (P13612 34-1032): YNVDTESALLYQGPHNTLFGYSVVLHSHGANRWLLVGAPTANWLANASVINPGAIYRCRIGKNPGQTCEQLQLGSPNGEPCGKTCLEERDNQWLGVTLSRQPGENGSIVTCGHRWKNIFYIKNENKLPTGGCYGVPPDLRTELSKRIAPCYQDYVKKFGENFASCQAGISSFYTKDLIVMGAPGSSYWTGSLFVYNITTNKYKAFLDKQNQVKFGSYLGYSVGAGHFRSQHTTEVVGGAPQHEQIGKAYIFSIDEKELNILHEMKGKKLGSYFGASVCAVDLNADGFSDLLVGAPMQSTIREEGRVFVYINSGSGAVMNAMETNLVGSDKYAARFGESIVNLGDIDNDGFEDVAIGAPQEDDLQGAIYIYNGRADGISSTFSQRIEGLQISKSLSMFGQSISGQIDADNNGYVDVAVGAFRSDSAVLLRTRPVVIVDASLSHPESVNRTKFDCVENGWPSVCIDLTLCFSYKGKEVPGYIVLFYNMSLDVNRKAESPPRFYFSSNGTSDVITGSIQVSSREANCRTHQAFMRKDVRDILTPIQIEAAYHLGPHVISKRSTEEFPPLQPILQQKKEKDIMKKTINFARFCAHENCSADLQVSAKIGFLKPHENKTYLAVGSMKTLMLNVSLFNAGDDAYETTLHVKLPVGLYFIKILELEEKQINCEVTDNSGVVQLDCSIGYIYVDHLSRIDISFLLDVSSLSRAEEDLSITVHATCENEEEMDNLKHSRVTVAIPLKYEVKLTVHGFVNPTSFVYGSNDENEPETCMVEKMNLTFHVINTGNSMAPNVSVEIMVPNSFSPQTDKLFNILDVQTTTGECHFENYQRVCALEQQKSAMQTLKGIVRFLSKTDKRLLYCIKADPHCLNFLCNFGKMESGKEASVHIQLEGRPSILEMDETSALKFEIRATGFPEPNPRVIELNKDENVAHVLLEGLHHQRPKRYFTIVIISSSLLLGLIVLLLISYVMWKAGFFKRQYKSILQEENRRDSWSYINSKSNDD
Chain of α4β7 integrin (P26010 20-798): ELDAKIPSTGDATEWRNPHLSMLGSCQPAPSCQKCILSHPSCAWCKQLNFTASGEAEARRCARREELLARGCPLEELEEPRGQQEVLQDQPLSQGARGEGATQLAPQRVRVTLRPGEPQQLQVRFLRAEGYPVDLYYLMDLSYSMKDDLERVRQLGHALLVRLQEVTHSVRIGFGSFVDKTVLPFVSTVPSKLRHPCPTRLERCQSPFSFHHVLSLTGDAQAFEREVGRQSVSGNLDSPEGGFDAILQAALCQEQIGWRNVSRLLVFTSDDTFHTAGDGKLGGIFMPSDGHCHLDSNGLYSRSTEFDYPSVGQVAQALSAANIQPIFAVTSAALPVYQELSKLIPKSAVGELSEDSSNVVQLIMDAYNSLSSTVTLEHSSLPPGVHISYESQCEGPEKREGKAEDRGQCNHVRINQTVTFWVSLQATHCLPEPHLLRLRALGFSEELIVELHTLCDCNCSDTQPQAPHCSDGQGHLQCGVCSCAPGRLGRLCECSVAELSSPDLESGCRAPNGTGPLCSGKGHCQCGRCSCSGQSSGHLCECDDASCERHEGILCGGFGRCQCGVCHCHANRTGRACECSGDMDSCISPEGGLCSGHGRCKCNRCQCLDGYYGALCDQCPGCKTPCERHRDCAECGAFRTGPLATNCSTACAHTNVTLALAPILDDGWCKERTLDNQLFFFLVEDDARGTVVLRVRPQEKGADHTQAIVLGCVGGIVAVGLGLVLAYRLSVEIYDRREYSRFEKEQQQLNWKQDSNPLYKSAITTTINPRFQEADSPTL
As for `Cc1cc(N2CCOC[C@@H]2C(F)(F)F)cc(C)c1C(=O)N[C@@H](Cc1ccc(-c2c(C(F)(F)F)cc(C)n(C)c2=O)c2ncccc12)C(=O)O` [Example 446], the pEC50 (as a rule, −log10 of the EC50, conventionally taken in molar units) was 9.50. Regarding `Cc1cc(N2CCOC[C@@H]2C(F)(F)F)cc(F)c1C(=O)N[C@@H](Cc1ccc(-n2c(=O)c3cncnc3n(C)c2=O)c2ncccc12)C(=O)O` [Example 406, (S)-2-(2-fluoro-6-methyl-4-((R)-3-(trifluoromethyl)morpholino)benzamido)-3-(8-(1-methyl-2,4-dioxo-1,4-dihydropyrimido[4,5-d]pyrimidin-3(2H)-yl)quinolin-5-yl)propanoic acid], the pEC50 is 10.10. Still for that read-out and setting: under `Cc1cnc(-c2ccc(C[C@H](NC(=O)c3c(C)cc(N4CCOC[C@@H]4C(F)(F)F)cc3F)C(=O)O)c3cccnc23)nc1C` [Example 482] stands 8.83; under `Cc1cc(N2CCOC[C@@H]2C(F)(F)F)cc(F)c1C(=O)N[C@@H](Cc1ccc(-n2c(=O)c3nccnc3n(C)c2=O)c2ncccc12)C(=O)O` [Example 404, (S)-2-(2-fluoro-6-methyl-4-((R)-3-(trifluoromethyl)morpholino)benzamido)-3-(8-(1-methyl-2,4-dioxo-1,4-dihydropteridin-3(2H)-yl)quinolin-5-yl)propanoic acid], 10.00. The compound `CC[C@@H](Nc1cc(C)c(C(=O)N[C@@H](Cc2ccc(-c3c(C)nc(C)n(C)c3=O)c3ncccc23)C(=O)O)c(F)c1)C(F)(F)F` [Example 442] had a pEC50 of 9.64.

In the case of `Cc1cc(C(F)(F)F)c(-c2ccc(C[C@H](NC(=O)c3c(F)cc(N4CCOC[C@@H]4C(F)(F)F)cc3C(C)C)C(=O)O)c3cccnc23)c(=O)n1C` [Example 470], the pEC50 was 9.74. Still for that read-out and setting: the result for `Cn1c(=O)n(-c2ccc(C[C@H](NC(=O)c3c(F)cc(N4CCOC[C@@H]4C(F)(F)F)cc3F)C(=O)O)c3cccnc23)c(=O)c2cc(F)c(F)cc21` [Example 422] reads 9.64. Same read-out and setting: the result for `Cc1cc(N2CCOC[C@@H]2C(F)(F)F)cc(F)c1C(=O)N[C@@H](Cc1ccc(-c2cnc(C)n(C)c2=O)c2ncccc12)C(=O)O` [Example 467] reads 9.62.

With `Cn1c(=O)n(-c2ccc(C[C@H](NC(=O)c3c(F)cc(N4CCOC[C@@H]4C(F)(F)F)cc3F)C(=O)O)c3cccnc23)c(=O)c2ccc(F)cc21` [Example 423], the negative-log EC50 (pEC50) is 10.10. In the case of `Cc1cc(N2CCOC3(CC3)C2)cc(F)c1C(=O)N[C@@H](Cc1ccc(-c2c(C(F)(F)F)cc(C)n(C)c2=O)c2ncccc12)C(=O)O` [Example 466], the negative-log EC50 (pEC50) is 9.24. The same measure, in the same setting: the result for `[2H]C([2H])([2H])c1cc(N2CCOC[C@@H]2C(F)(F)F)cc(F)c1C(=O)N[C@@H](Cc1ccc(-c2c(C(F)(F)F)cc(C)n(C)c2=O)c2ncccc12)C(=O)O` [Example 462] reads 9.99.

The assay is the same for the next values; noted with them: Table 1; capture of α4β7 expressing RPM18866 cells on MadCAM-1 extracellular domain-coated plate.
In turn, `Cn1c(=O)c(-c2ccc(C[C@H](NC(=O)c3c(F)cc(N4CCOC[C@@H]4C(F)(F)F)cc3F)C(=O)O)c3cccnc23)cc2ccccc21` [Example 104, (S)-2-(2,6-difluoro-4-((R)-3-(trifluoromethyl)morpholino)benzamido)-3-(1-methyl-2-oxo-1,2-dihydro-[3,8′-biquinolin]-5′-yl)propanoic acid] gave a pEC50 of 9.30. `O=C(N[C@@H](Cc1ccc(-c2ccncn2)c2ncccc12)C(=O)O)c1c(F)cc(NS(=O)(=O)c2ccc(-c3ccnc(F)c3)cc2)cc1F` [Example 56, (S)-2-(2,6-difluoro-4-((4-(2-fluoropyridin-4-yl)phenyl)sulfonamido)benzamido)-3-(8-(pyrimidin-4-yl)quinolin-5-yl)propanoic acid] gave a negative-log EC50 (pEC50) of 8.04. `Cc1cc(C(F)(F)F)c(-c2ccc(C[C@H](NC(=O)c3c(F)cc(N4CCO[C@H](C)[C@@H]4C(F)(F)F)cc3F)C(=O)O)c3cccnc23)c(=O)n1C` [Example 137, (S)-2-(2,6-difluoro-4-((2R,3R)-2-methyl-3-(trifluoromethyl)morpholino)benzamido)-3-(8-(1,6-dimethyl-2-oxo-4-(trifluoromethyl)-1,2-dihydropyridin-3-yl)quinolin-5-yl)propanoic acid] gave a pEC50 of 9.40. Still for that read-out and setting: under “(S)-3-(8-(2-chloro-4-cyanophenyl)quinolin-5-yl)-2-(2,6-difluoro-4-((phenoxycarbonyl)amino)benzamido)propanoic acid [Example 41]” stands 8.11.

`N#Cc1ccc(-c2ccc(C[C@H](NC(=O)c3c(F)cccc3F)C(=O)O)c3cccnc23)c(Cl)c1` [Example 3, (S)-3-(8-(2-chloro-4-cyanophenyl)quinolin-5-yl)-2-(2,6-difluorobenzamido)propanoic acid] gave a pEC50 of 7.20.

`N#Cc1ccc(-c2ccc(C[C@H](NC(=O)c3c(F)cc(C(=O)NCC(F)(F)F)cc3F)C(=O)O)c3cccnc23)c(Cl)c1` [Example 28, (S)-3-(8-(2-chloro-4-cyanophenyl)quinolin-5-yl)-2-(2,6-difluoro-4-((2,2,2-trifluoroethyl)carbamoyl)benzamido)propanoic acid] gave a negative-log EC50 (pEC50) of 7.47. `N#Cc1ccc(-c2c(F)cc(C[C@H](NC(=O)c3c(F)cccc3F)C(=O)O)c3cccnc23)c(Cl)c1` [Example 34, (2S)-3-(8-(2-chloro-4-cyanophenyl)-7-fluoroquinolin-5-yl)-2-(2,6-difluorobenzamido)propanoic acid] showed a pEC50 of 7.40. The same measure, in the same setting: under `C[C@@H](NC(=O)c1cc(F)c(C(=O)N[C@@H](Cc2ccc(-c3ccc(C#N)cc3Cl)c3ncccc23)C(=O)O)c(F)c1)c1ccccc1` [Example 27, (S)-3-(8-(2-chloro-4-cyanophenyl)quinolin-5-yl)-2-(2,6-difluoro-4-(((R)-1-phenylethyl)carbamoyl)benzamido)propanoic acid] stands 7.89; under `O=C(N[C@@H](Cc1ccc(-c2cccc3c2OCCC3)c2ncccc12)C(=O)O)c1c(F)cc(NS(=O)(=O)c2ccc(-c3ccnc(F)c3)cc2)cc1F` [Example 62, (S)-3-(8-(chroman-8-yl)quinolin-5-yl)-2-(2,6-difluoro-4-((4-(2-fluoropyridin-4-yl)phenyl)sulfonamido)benzamido)propanoic acid], 8.74; under `CC(O)Cc1cc(F)c(C(=O)N[C@@H](Cc2ccc(-c3ccc(C#N)cc3Cl)c3ncccc23)C(=O)O)c(F)c1` (stereo partly drawn) [Example 24, (2S)-3-(8-(2-chloro-4-cyanophenyl)quinolin-5-yl)-2-(2,6-difluoro-4-(2-hydroxypropyl)benzamido)propanoic acid], 7.25. The same measure, in the same setting: the result for `O=C(N[C@@H](Cc1ccc(-c2ccccc2C(F)(F)F)c2ncccc12)C(=O)O)c1c(F)cc(NS(=O)(=O)c2ccc(-c3ccnc(F)c3)cc2)cc1F` [Example 65, (S)-2-(2,6-difluoro-4-((4-(2-fluoropyridin-4-yl)phenyl)sulfonamido)benzamido)-3-(8-(2-(trifluoromethyl)phenyl)quinolin-5-yl)propanoic acid] reads 8.08; that for `CCOCc1cc(OC)c(-c2ccc(C[C@H](NC(=O)c3c(F)cccc3F)C(=O)O)c3cccnc23)c(OC)c1` [Example 18, (S)-2-(2,6-difluorobenzamido)-3-(8-(4-(ethoxymethyl)-2,6-dimethoxyphenyl)quinolin-5-yl)propanoic acid], 8.05; that for `N#Cc1ccc(-c2ccc(C[C@H](NC(=O)c3c(F)cc(C(=O)Nc4ccccc4)cc3F)C(=O)O)c3cccnc23)c(Cl)c1` [Example 26, (S)-3-(8-(2-chloro-4-cyanophenyl)quinolin-5-yl)-2-(2,6-difluoro-4-(phenylcarbamoyl)benzamido)propanoic acid], 7.48.

Take `CC[C@@H](Nc1cc(F)c(C(=O)N[C@@H](Cc2ccc(-c3ccc(C#N)cc3Cl)c3ncccc23)C(=O)O)c(F)c1)C(F)(F)F` [Example 74, (S)-3-(8-(2-chloro-4-cyanophenyl)quinolin-5-yl)-2-(2,6-difluoro-4-(((R)-1,1,1-trifluorobutan-2-yl)amino)benzamido)propanoic acid]: the pEC50 is 7.87.

The assay is the same for the next values; noted with them: Table 2; capture of α4β7 expressing RPM18866 cells on MadCAM-1 extracellular domain-coated plate.
Compound `CC[C@@H](Nc1cc(F)c(C(=O)N[C@@H](Cc2ccc(-c3ncc(C)cc3N(C)C)c3ncccc23)C(=O)O)c(F)c1)C(F)(F)F` [Example 313] had a negative-log EC50 (pEC50) of 7.88.

Regarding `N#Cc1ccc(-c2ccc(C[C@H](NC(=O)c3c(Cl)cc4nc(C5CC5)[nH]c4c3Cl)C(=O)O)c3cccnc23)c(Cl)c1` [Example 179], the pEC50 is 7.42. For the compound `C[C@H](O)Cc1cc(F)c(C(=O)N[C@@H](Cc2ccc(-c3ccc(C#N)cc3Cl)c3ncccc23)C(=O)O)c(F)c1` [Example 286], the pEC50 was 7.33. Compound `Cc1cc(C(F)(F)F)c(-c2ccc(C[C@H](NC(=O)c3c(F)cc(N4CCOC[C@@H]4C(F)(F)F)cc3F)C(=O)O)c3ccc(C(F)(F)F)nc23)c(=O)n1C` [Example 231] showed a negative logarithm of the EC50 (pEC50) of 9.05.

The compound `Cc1c(-c2ccc(C[C@H](NC(=O)c3c(F)cc(N4CCS(=O)(=O)[C@@H](C)C4)cc3F)C(=O)O)c3cccnc23)c(=O)n(C)c(=O)n1C` [Example 226] showed a negative logarithm of the EC50 (pEC50) of 8.96. In turn, `O=C(N[C@@H](Cc1ccc(-c2cc3ccccc3oc2=O)c2ncccc12)C(=O)O)c1c(Cl)cccc1Cl` [Example 196] showed a negative-log EC50 (pEC50) of 7.20.

In turn, `Cc1cc(C(F)(F)F)c(-c2ccc(C[C@H](NC(=O)c3c(F)cc(N4CCO[C@@H](C)C4)cc3F)C(=O)O)c3cccnc23)c(=O)n1C` [Example 181] showed a negative-log EC50 (pEC50) of 9.15. Turning to `Cc1cc(C(F)(F)F)c(-c2ccc(C[C@H](NC(=O)c3c(F)cc(N4CCO[C@@H](C)[C@H]4C(F)(F)F)cc3F)C(=O)O)c3cccnc23)c(=O)n1C` [Example 227], the pEC50 was 8.96. The compound `CC[C@@H](Nc1cc(F)c(C(=O)N[C@@H](Cc2ccc(-c3c(Cl)cc(C)n(C)c3=O)c3ncccc23)C(=O)O)c(F)c1)C(F)(F)F` [Example 343] gave a pEC50 of 9.15. In turn, `N#Cc1cc(Cl)c(-c2ccc(C[C@H](NC(=O)c3c(F)cc(CS(=O)(=O)c4ccccc4)cc3F)C(=O)O)c3cccnc23)c(Cl)c1` [Example 293] showed a pEC50 of 8.16. Still for that read-out and setting: the result for `Cn1c(=O)c(-c2ccc(C[C@H](NC(=O)c3c(F)cc(N4CCOC[C@H]4C(F)(F)F)cc3F)C(=O)O)c3cccnc23)cc2cnccc21` [Example 192] reads 8.85.
